Peptide text beside a SMILES is read from it.
Tested on: SD rats
Experiment: Hematology and coagulation analysis in acute toxicity study
Assay type: in vivo, Sprague Dawley rats
Details: day 15, mean ± SD
Protocol: Forty SD rats (20 males and 20 females) were randomly divided into 4 groups (Figure 1). All rats were given F3 once on the day of the experiment.
Twelve SD rats (6 males, 6 females) were given a daily subcutaneous injection of F3 at a dose of 10.0 mg/kg for consecutive 14 days. The first day of administration was recorded as day 1.
For 14 days, the body weight was measured before F3 administration on the first day of the experiment and once a week thereafter, with additional measurements on the day before and on the day of the planned autopsy. Food intake was recorded once a week. The rats were anesthetized by inhalation of 70% CO2/30% O2 before dissection, and blood samples were taken for hematology and biochemical analysis. The collected tissue was weighed and preserved for pathological examination.
Blood smears were used to investigate the morphology of basophils (ABBASO), eosinophils (ABEOS), neutrophils (ABNEUT), monocytes (ABMONO), and lymphocytes (ABLYMP) in the peripheral blood. When white blood cell classification and reticulocyte count cannot be calculated directly by ADVIA 2120i, they were manually counted and calculated following the procedure published previously. The number of platelets was determined manually when they could not be counted mechanically because of coagulation. Wright-Giemsa staining was used to prepare blood smears for cell morphology.
Liver and renal functions were measured with special attention to alanine aminotransferase (ALT), aspartate aminotransferase (AST), alkaline phosphatase (ALP), serum creatinine, total bilirubin, and urea levels. In addition, the levels of glucose, calcium, total protein, and albumin in serum samples were measured. The blood biochemical test, hematology test, and coagulation function test were detected by Hitachi 7180 automatic biochemical analyzer, Siemens ADVIA 2120i hematology analyzer, and Stargo Emo Express Hemagglutination analyzer, respectively.

[1] = male SD rats, s.c. 10.0 mg/kg daily x14 d, n=6
[2] = male SD rats, single s.c. 1.0 mg/kg, n=5
[3] = male SD rats, single s.c. 10.0 mg/kg, n=5
[4] = male SD rats, single s.c. 100.0 mg/kg, n=5

CC[C@H](C)[C@H](NC(=O)[C@H](CO)NC(=O)CNC(=O)[C@H](CC(C)C)NC(=O)[C@@H](NC(=O)CNC(=O)[C@H](Cc1ccccc1)NC(=O)[C@H](CC(C)C)NC(=O)CN)C(C)C)C(=O)N[C@@H](C)C(=O)N[C@@H](CCCCN)C(=O)N[C@@H](Cc1c[nH]cn1)C(=O)N[C@H](C(=O)N[C@@H](CC(C)C)C(=O)N1CCC[C@H]1C(=O)N[C@@H](Cc1c[nH]cn1)C(=O)N[C@H](C(=O)N[C@H](C(=O)N1CCC[C@H]1C(=O)N[C@H](C(=O)N[C@H](C(=O)N[C@@H](C)C(=O)N[C@@H](CCC(=O)O)C(=O)N[C@@H](CCCCN)C(=O)N[C@@H](CC(C)C)C(N)=O)[C@@H](C)CC)C(C)C)C(C)C)C(C)C)C(C)C [F3, Caerin 1.9] (H-GLFGVLGSIAKHVLPHVVPVIAEKL-NH2)
WBC (female SD rats, single s.c. 100.0 mg/kg, n=5): 7.28 ± 2.163 10^9/L | ABBASO (basophils) [1]: 0.01 ± 0.01 10^9/L | ABEOS (eosinophils) [1]: 0.17 ± 0.06 10^9/L | ABLYMP (lymphocytes) [1]: 10.1 ± 2.26 10^9/L | ABMONO (monocytes) [1]: 0.34 ± 0.09 10^9/L | ABNEUT (neutrophils) [1]: 2.43 ± 1.39 10^9/L | ABRETIC [1]: 338.6 ± 20.2 10^9/L | APTT [1]: 16.2 ± 1.82 s | HCT [1]: 42.18 ± 0.92% | HGB [1]: 12.68 ± 0.34 g/dL | MCH [1]: 18.28 ± 0.56 pg | MCHC [1]: 30.08 ± 0.52 g/dL | MCV [1]: 60.78 ± 1.44 fL | MPV [1]: 9.05 ± 0.36 fL | PLT [1]: 1421.5 ± 225.3 10^9/L | PT [1]: 20.87 ± 1.2 s | RBC [1]: 6.94 ± 0.18 10^12/L | WBC [1]: 13.19 ± 3.49 10^9/L | ABBASO (basophils) [2]: 0.005 ± 0.006 10^9/L | ABEOS (eosinophils) [2]: 0.088 ± 0.013 10^9/L | ABLYMP (lymphocytes) [2]: 7.695 ± 0.12 10^9/L | ABMONO (monocytes) [2]: 0.283 ± 0.124 10^9/L | ABNEUT (neutrophils) [2]: 1.185 ± 0.375 10^9/L | ABRETIC [2]: 250.78 ± 19.32 10^9/L | APTT [2]: 17.44 ± 0.85 s | HCT [2]: 48.4 ± 1.29% | HGB [2]: 15.1 ± 0.41 g/dL | MCH [2]: 18.63 ± 1.63 pg | MCHC [2]: 31.23 ± 0.69 g/dL | MCV [2]: 59.58 ± 4.36 fL | MPV [2]: 9.35 ± 0.33 fL | PLT [2]: 862.8 ± 95.1 10^9/L | PT [2]: 19.76 ± 0.92 s | RBC [2]: 8.163 ± 0.679 10^12/L | WBC [2]: 9.315 ± 0.344 10^9/L | ABBASO (basophils) [3]: 0.012 ± 0.008 10^9/L | ABEOS (eosinophils) [3]: 0.086 ± 0.059 10^9/L | ABLYMP (lymphocytes) [3]: 10.178 ± 2.676 10^9/L | ABMONO (monocytes) [3]: 0.262 ± 0.043 10^9/L | ABNEUT (neutrophils) [3]: 1.498 ± 0.573 10^9/L | ABRETIC [3]: 252.72 ± 25.77 10^9/L | APTT [3]: 17.86 ± 1.84 s | HCT [3]: 47.5 ± 1.89% | HGB [3]: 14.72 ± 0.59 g/dL | MCH [3]: 18.6 ± 0.49 pg | MCHC [3]: 30.98 ± 0.24 g/dL | MCV [3]: 60.06 ± 2.02 fL | PLT [3]: 878 ± 118.5 10^9/L | PT [3]: 19.88 ± 0.94 s | RBC [3]: 7.916 ± 0.383 10^12/L | WBC [3]: 12.12 ± 2.998 10^9/L | ABBASO (basophils) [4]: 0.01 ± 0.01 10^9/L | ABEOS (eosinophils) [4]: 0.11 ± 0.062 10^9/L | ABLYMP (lymphocytes) [4]: 8.444 ± 1.168 10^9/L | ABMONO (monocytes) [4]: 0.27 ± 0.06 10^9/L | ABNEUT (neutrophils) [4]: 1.742 ± 0.58 10^9/L | ABRETIC [4]: 270.82 ± 25.29 10^9/L | APTT [4]: 17.34 ± 1.96 s | HCT [4]: 47.62 ± 1.59% | HGB [4]: 14.6 ± 0.55 g/dL | MCH [4]: 18.86 ± 0.15 pg | MCV [4]: 61.52 ± 0.65 fL | MPV [4]: 9.26 ± 0.24 fL | PLT [4]: 985.4 ± 65 10^9/L | PT [4]: 20.14 ± 0.95 s | RBC [4]: 7.742 ± 0.232 10^12/L | WBC [4]: 10.654 ± 1.291 10^9/L

Reference: PMC9363195, “Preclinical Pharmacokinetics, Biodistribution, and Acute Toxicity Evaluation of Caerin 1.9 Peptide in Sprague Dawley Rats” (Evidence-based Complementary and Alternative Medicine : eCAM, 2022)
